In brackets after ≈: the same amount, converted by molar mass. Like-named read-outs stand apart in the source and are kept apart here.
Legend:
Format in all cases: cell-based
C. tropicalis GC 3081 = experiment: Antifungal activity, microtiter broth dilution MIC; conditions: 24-48 hours; for ANTIFUNGAL ACTIVITY (MIC): RPMI 1640, 35° C.
Experimental: (§1) The antifungal activity for the 1-oxorapamycins of this invention was confirmed in a standard pharmacological test procedure which measured the ability of the compound being evaluated to inhibit fungal growth. 1-Oxorapamycin (Compound I), 1-oxorapamycin 42-ester with 3-hydroxy-2-(hydroxymethyl)-2-methylpropionic acid (Compound II), and 42-O-(2-hydroxy)ethyl 1-oxorapamycin (Compound III) were evaluated as representative compounds of this invention. The procedure used and results obtained are briefly described below. A 96 U-bottom microtiter plate was filled (50 μl/well) with RPMI 1640. The compounds to be evaluated were placed in appropriate wells, and serial diluted in successive wells to provide 11 dilutions. The concentrations ranged from 64 through 0.06 μg/ml. An adjusted inoculum of fungi (50 μl) was added to each well and the plates were incubated at 35° C. for 24-48 hours. […] Nystatin and rapamycin were used for the purpose of comparison.

A. niger GC 3091 = experiment: Antifungal activity, microtiter broth dilution MIC; conditions: 24-48 hours; for ANTIFUNGAL ACTIVITY (MIC): RPMI 1640, 35° C.
Experimental: as §1

A. fumigatus GC 3092 = experiment: Antifungal activity, microtiter broth dilution MIC; conditions: for ANTIFUNGAL ACTIVITY (MIC): A. fumigatus GC 3092, RPMI 1640, 35° C., 24-48 hours
Experimental: as §1

C. parapsilosis GC 3074 = experiment: Antifungal activity, microtiter broth dilution MIC; conditions: 24-48 hours; for ANTIFUNGAL ACTIVITY (MIC): RPMI 1640, 35° C.
Experimental: as §1

C. albicans GC 3066 = experiment: Antifungal activity, microtiter broth dilution MIC; conditions: 24-48 hours; for ANTIFUNGAL ACTIVITY (MIC): RPMI 1640, 35° C.
Experimental: as §1

A. niger GC 6591 = experiment: Antifungal activity, microtiter broth dilution MIC; conditions: 24-48 hours; for ANTIFUNGAL ACTIVITY (MIC): RPMI 1640, 35° C.
Experimental: as §1

C. albicans GC 3064 = experiment: Antifungal activity, microtiter broth dilution MIC; conditions: 24-48 hours; for ANTIFUNGAL ACTIVITY (MIC): RPMI 1640, 35° C.
Experimental: as §1

C. albicans GC 3065 = experiment: Antifungal activity, microtiter broth dilution MIC; conditions: 24-48 hours; for ANTIFUNGAL ACTIVITY (MIC): RPMI 1640, 35° C.
Experimental: as §1

C. krussii GC 3067 = experiment: Antifungal activity, microtiter broth dilution MIC; conditions: RPMI 1640, 35° C., 24-48 hours
Experimental: as §1

C. pseudotropicalis 3070 = experiment: Antifungal activity, microtiter broth dilution MIC; conditions: RPMI 1640, 35° C., 24-48 hours
Experimental: as §1

C. parapsilosis GC 3075 = experiment: Antifungal activity, microtiter broth dilution MIC; conditions: 24-48 hours; for ANTIFUNGAL ACTIVITY (MIC): RPMI 1640, 35° C.
Experimental: as §1

C. lusitaniae GC 3068 = experiment: Antifungal activity, microtiter broth dilution MIC; conditions: RPMI 1640, 35° C., 24-48 hours; for MIC: Clavispora lusitaniae
Experimental: as §1

C. parapsilosis GC 3076 = experiment: Antifungal activity, microtiter broth dilution MIC; conditions: 24-48 hours; for ANTIFUNGAL ACTIVITY (MIC): RPMI 1640, 35° C.
Experimental: as §1

C. tropicalis GC 3080 = experiment: Antifungal activity, microtiter broth dilution MIC; conditions: 24-48 hours; for ANTIFUNGAL ACTIVITY (MIC): RPMI 1640, 35° C.
Experimental: as §1

[1] = tested on: 3T3/H2N (ovarian—resistant to cis-platin) tumor cell line; experiment: Antineoplastic activity, tumor cell growth inhibition (sulforhodamine B); conditions: 3T3/H2N cells, 48 hours
From the text: (§2) Antineoplastic activity for the compounds of this invention was confirmed by evaluating the antineoplastic activity of representative compounds of this invention (Compounds I-III) against six tumor cell lines in vitro. Briefly, tumor cells from six cell lines were placed in wells of a 96 well microtiter plate. The following tumor cell lines were used: 3T3 (ovarian), 3T3/H2N (ovarian—resistant to cis-platin), A431 (vulva epidermoid origin), SW620 (colon), SKBR3 (breast), and MDA-435 (breast). The tumors cells were grown in the presence of serial dilutions of the compound to be evaluated for 48 hours, and cell growth determined using a colorimetric procedure (sulforhrodamine B). The inhibition of growth was calculated compared to the number of cells at the time of test compound addition. Results are expressed as an IC50 (μg/ml); N/A indicates the compound was not evaluated against that cell line. The following IC50s was listed on Table 2.

[2] = tested on: A431 (vulva epidermoid origin) tumor cell line; experiment: as above; conditions: 48 hours; for Antineoplastic Activity (IC50): A431 cells
From the text: as §2

[3] = tested on: SKBR3 (breast) tumor cell line; experiment: as above; conditions: 48 hours; for Antineoplastic Activity (IC50): SKBR3 cells
From the text: as §2

[4] = tested on: MDA-435 (breast) tumor cell line; experiment: as above; conditions: MDA435 cells, 48 hours
From the text: as §2

[5] = tested on: SW620 (colon) tumor cell line; experiment: as above; conditions: 48 hours; for Antineoplastic Activity (IC50): SW620 cells
From the text: as §2

[6] = tested on: 3T3 (ovarian) tumor cell line; experiment: as above; conditions: 48 hours
From the text: as §2

SH-SY5Y cells = experiment: Neuroregeneration activity, neurite outgrowth; conditions: aphidicolin pretreated, NGF plus test compound, mean ± SEM
From the text: The neuroregeneration activity for the compounds of this invention was confirmed in a standard pharmacological test procedure by evaluating 1-oxo-rapamycin (Compound I) as representative compound of this invention, against SH-SY5Y cells in vitro [Gold et al., Exp Neurol 147: 269-278, 1997]. Briefly, SH-SY5Y cells were placed in 6-well plate treated with aphidicolin for 5 days followed by the test compounds using 6-well plates. For controls, wells were untreated, or treated with nerve growth factor (NGF) alone. Test wells were treated with NGF plus compound I or rapamycin. Cells were photographed at 168 hours. Analysis of neuritic lengths was performed on photographic prints using a Houston Instrument HI-PAD digitizing tablet connected to an IBM XT computer with appropriate software (Bioquant IV, R&M Biometrics, Nashville, Tenn.). Mean values for axonal areas were compared using by ANOVA (STATVIEW, Abacus Concepts, Inc., Berkeley, Calif. The following table summarizes the results that were obtained.

[7] = C. lusitaniae GC 3068, first listing (r26)

CO[C@H]1CC2CC[C@@H](C)[C@@](O)(O2)C(=O)C(=O)N2CCCC[C@H]2C(=O)O[C@H]([C@H](C)CC2CC[C@@H](O)[C@H](OC)C2)CC(=O)[C@H](C)/C=C(\C)[C@@H](O)[C@@H](OC)C(=O)[C@H](C)C[C@H](C)C(=O)C/C=C/C=C/1C (stereo partly drawn) [Compound I, 1-Oxo-rapamycin]
MIC (C. tropicalis GC 3081; Candida tropicalis, GC3081, RPMI 1640, 35° C.): 0.5 µg/mL (≈ 0.538 µM)
MIC (A. niger GC 3091; Aspergillus niger, GC3091, RPMI 1640, 35° C.): 64 µg/mL (≈ 68.8 µM)
MIC (A. fumigatus GC 3092; Aspergillus fumigatus, GC3092, read-out: ANTIFUNGAL ACTIVITY (MIC)): 64 µg/mL (≈ 68.8 µM)
MIC (C. parapsilosis GC 3074; Lodderomyces parapsilosis, GC3074, RPMI 1640, 35° C.): 2 µg/mL (≈ 2.15 µM)
MIC (C. albicans GC 3066; Candida albicans, GC3066, RPMI 1640, 35° C.): 2 µg/mL (≈ 2.15 µM)
MIC (A. niger GC 6591; Aspergillus niger, GC6591, RPMI 1640, 35° C.): 64 µg/mL (≈ 68.8 µM)
MIC (C. albicans GC 3064; Candida albicans, GC3064, RPMI 1640, 35° C.): 8 µg/mL (≈ 8.6 µM)
MIC (C. albicans GC 3065; Candida albicans, GC3065, RPMI 1640, 35° C.): 2 µg/mL (≈ 2.15 µM)
MIC (C. krussii GC 3067): 16 µg/mL (≈ 17.2 µM)
MIC (C. pseudotropicalis 3070; Kluyveromyces marxianus): 0.5 µg/mL (≈ 0.538 µM)
MIC (C. parapsilosis GC 3075; Lodderomyces parapsilosis, GC3075, RPMI 1640, 35° C.): 1 µg/mL (≈ 1.08 µM)
MIC (C. lusitaniae GC 3068; GC3068, C. lusitaniae GC 3068, first listing (r26), read-out: ANTIFUNGAL ACTIVITY (MIC)): 0.5 µg/mL (≈ 0.538 µM)
MIC (C. lusitaniae GC 3068; GC3068, read-out: ANTIFUNGAL ACTIVITY (MIC), C. lusitaniae GC 3068, second listing (r28)): 2 µg/mL (≈ 2.15 µM)
MIC (C. parapsilosis GC 3076; Lodderomyces parapsilosis, GC3076, RPMI 1640, 35° C.): 2 µg/mL (≈ 2.15 µM)
MIC (C. tropicalis GC 3080; Candida tropicalis, GC3080, RPMI 1640, 35° C.): 2 µg/mL (≈ 2.15 µM)
IC50 [1]: 2.3 µg/mL (≈ 2.47 µM)
IC50 ([2]; Homo sapiens, A-431, A431 cells): 6.2 µg/mL (≈ 6.67 µM)
IC50 ([3]; Homo sapiens, SK-BR-3, SKBR3 cells): 3.6 µg/mL (≈ 3.87 µM)
IC50 [4]: 6 µg/mL (≈ 6.45 µM)
IC50 ([5]; Homo sapiens, SW-620, SW620 cells): 12.7 µg/mL (≈ 13.7 µM)
IC50 ([6]; Mus musculus, NIH3T3, 3T3 cells): 0.89 µg/mL (≈ 0.957 µM)
Mean Neurite Lengths after 168 h, Neurite Length (SH-SY5Y cells): 233.7 ± 8.8 μm

CO[C@H]1CC2CC[C@@H](C)[C@@](O)(O2)C(=O)C(=O)N2CCCC[C@H]2C(=O)O[C@H]([C@H](C)CC2CC[C@@H](OC(=O)C(C)(CO)CO)[C@H](OC)C2)CC(=O)[C@H](C)/C=C(\C)[C@@H](O)[C@@H](OC)C(=O)[C@H](C)C[C@H](C)C(=O)C/C=C/C=C/1C (stereo partly drawn) [Compound II, 1-Oxorapamycin 42-ester with 3-Hydroxy-2-(hydroxymethyl)-2-methylpropionic acid]
ANTIFUNGAL ACTIVITY (MIC) (C. tropicalis GC 3081): 0.50 µg/mL
ANTIFUNGAL ACTIVITY (MIC) (A. niger GC 3091): 32 µg/mL
ANTIFUNGAL ACTIVITY (MIC) (A. fumigatus GC 3092): 64 µg/mL
ANTIFUNGAL ACTIVITY (MIC) (C. parapsilosis GC 3074): 2 µg/mL
ANTIFUNGAL ACTIVITY (MIC) (C. albicans GC 3066): 2 µg/mL
ANTIFUNGAL ACTIVITY (MIC) (A. niger GC 6591): 64 µg/mL
ANTIFUNGAL ACTIVITY (MIC) (C. albicans GC 3064): 8 µg/mL
ANTIFUNGAL ACTIVITY (MIC) (C. albicans GC 3065): 2 µg/mL
ANTIFUNGAL ACTIVITY (MIC) (C. krussii GC 3067): 16 µg/mL
ANTIFUNGAL ACTIVITY (MIC) (C. pseudotropicalis 3070): 0.50 µg/mL
ANTIFUNGAL ACTIVITY (MIC) (C. parapsilosis GC 3075): 2 µg/mL
ANTIFUNGAL ACTIVITY (MIC) (C. lusitaniae GC 3068; [7]): 1 µg/mL
ANTIFUNGAL ACTIVITY (MIC) (C. lusitaniae GC 3068; C. lusitaniae GC 3068, second listing (r28)): 1 µg/mL
ANTIFUNGAL ACTIVITY (MIC) (C. parapsilosis GC 3076): 1 µg/mL
ANTIFUNGAL ACTIVITY (MIC) (C. tropicalis GC 3080): 1 µg/mL
Antineoplastic Activity (IC50) [1]: 3.0 µg/mL
Antineoplastic Activity (IC50) [2]: 5.5 µg/mL
Antineoplastic Activity (IC50) [3]: 1.7 µg/mL
Antineoplastic Activity (IC50) [4]: 2.8 µg/mL
Antineoplastic Activity (IC50) [5]: 8.7 µg/mL
Antineoplastic Activity (IC50) ([6]; 3T3 cells): 0.84 µg/mL

CO[C@H]1CC2CC[C@@H](C)[C@@](O)(O2)C(=O)C(=O)N2CCCC[C@H]2C(=O)O[C@H]([C@H](C)CC2CC[C@@H](OCCO)[C@H](OC)C2)CC(=O)[C@H](C)/C=C(\C)[C@@H](O)[C@@H](OC)C(=O)[C@H](C)C[C@H](C)C(=O)C/C=C/C=C/1C (stereo partly drawn) [Compound III, 42-O-(2-Hydroxy)ethyl 1-oxorapamycin]
ANTIFUNGAL ACTIVITY (MIC) (C. tropicalis GC 3081): 2 µg/mL
ANTIFUNGAL ACTIVITY (MIC) (A. niger GC 3091): >32 µg/mL
ANTIFUNGAL ACTIVITY (MIC) (A. fumigatus GC 3092): 2 µg/mL
ANTIFUNGAL ACTIVITY (MIC) (C. parapsilosis GC 3074): 2 µg/mL
ANTIFUNGAL ACTIVITY (MIC) (C. albicans GC 3066): 2 µg/mL
ANTIFUNGAL ACTIVITY (MIC) (A. niger GC 6591): >32 µg/mL
ANTIFUNGAL ACTIVITY (MIC) (C. albicans GC 3064): 4 µg/mL
ANTIFUNGAL ACTIVITY (MIC) (C. albicans GC 3065): 2 µg/mL
ANTIFUNGAL ACTIVITY (MIC) (C. krussii GC 3067): >32 µg/mL
ANTIFUNGAL ACTIVITY (MIC) (C. pseudotropicalis 3070): 2 µg/mL
ANTIFUNGAL ACTIVITY (MIC) (C. parapsilosis GC 3075): 2 µg/mL
ANTIFUNGAL ACTIVITY (MIC) (C. lusitaniae GC 3068; [7]): 2 µg/mL
ANTIFUNGAL ACTIVITY (MIC) (C. parapsilosis GC 3076): 2 µg/mL
ANTIFUNGAL ACTIVITY (MIC) (C. tropicalis GC 3080): 2 µg/mL
Antineoplastic Activity (IC50) [2]: 0.48 µg/mL
Antineoplastic Activity (IC50) [3]: 0.038 µg/mL
Antineoplastic Activity (IC50) [5]: 1.9 µg/mL

Reference: patent US6399625B1, “1-oxorapamycins” (Wyeth, priority 2000, dated 2002)
